According to patent publication US20170037014A1, “FUNGICIDAL PYRAZOLES” (E. I. DU PONT DE NEMOURS AND COMPANY, priority 2014, published 2017):
Marks after values point to notes of the source that are not given here.

Assays:
[1] = system: Blumeria graminis f sp. tritici; experiment: Test D: wheat powdery mildew, preventive spray on wheat seedlings, visual disease rating; assay type: in vivo; settings: 100 = 100% disease control, 0 = no control; for pest or weed control at 50 ppm / pest or weed control at 250 ppm: Blumeria graminis
From the text: General protocol for preparing test suspensions for Tests A-D: the test compounds were first dissolved in acetone in an amount equal to 3% of the final volume and then suspended at the desired concentration (in ppm) in acetone and purified water (50/50 mix by volume) containing 250 ppm of the surfactant Trem® 014 (polyhydric alcohol esters). The resulting test suspensions were then used in Tests A-D. The test suspension was sprayed to the point of run-off on wheat seedlings. The following day the seedlings were inoculated with a spore dust of Blumeria graminis f sp. tritici, (also known as Erysiphe graminis f. sp. tritici, the causal agent of wheat powdery mildew) and incubated in a growth chamber at 20° C. for 8 days, after which time visual disease ratings were made. In the Table, a rating of 100 indicates 100% disease control and a rating of 0 indicates no disease control (relative to the controls). A dash (−) indicates no test results. All results are for 250 ppm except where followed by an “*” which indicates 50 ppm, and where followed by an “**” which indicates 10 ppm

[2] = system: Septoria tritici; experiment: Test B: wheat leaf blotch, preventive spray on wheat seedlings, visual disease rating; assay type: in vivo; settings: 100 = 100% disease control, 0 = no control; for pest or weed control at 50 ppm / pest or weed control at 250 ppm: Zymoseptoria tritici
From the text: General protocol for preparing test suspensions for Tests A-D: the test compounds were first dissolved in acetone in an amount equal to 3% of the final volume and then suspended at the desired concentration (in ppm) in acetone and purified water (50/50 mix by volume) containing 250 ppm of the surfactant Trem® 014 (polyhydric alcohol esters). The resulting test suspensions were then used in Tests A-D. The test suspension was sprayed to the point of run-off on wheat seedlings. The following day the seedlings were inoculated with a spore suspension of Septoria tritici (the causal agent of wheat leaf blotch) and incubated in a saturated atmosphere at 24° C. for 48 h, and then moved to a growth chamber at 20° C. for 19 days, after which time visual disease ratings were made. In the Table, a rating of 100 indicates 100% disease control and a rating of 0 indicates no disease control (relative to the controls). A dash (−) indicates no test results. All results are for 250 ppm except where followed by an “*” which indicates 50 ppm, and where followed by an “**” which indicates 10 ppm

[3] = system: Puccinia recondita f sp. tritici; experiment: Test A: wheat leaf rust, preventive spray on wheat seedlings, visual disease rating; assay type: in vivo; settings: 100 = 100% disease control, 0 = no control
From the text: General protocol for preparing test suspensions for Tests A-D: the test compounds were first dissolved in acetone in an amount equal to 3% of the final volume and then suspended at the desired concentration (in ppm) in acetone and purified water (50/50 mix by volume) containing 250 ppm of the surfactant Trem® 014 (polyhydric alcohol esters). The resulting test suspensions were then used in Tests A-D. The test suspension was sprayed to the point of run-off on wheat seedlings. The following day the seedlings were inoculated with a spore suspension of Puccinia recondita f sp. tritici (the causal agent of wheat leaf rust) and incubated in a saturated atmosphere at 20° C. for 24 h, and then moved to a growth chamber at 20° C. for 7 days, after which time visual disease ratings were made. In the Table, a rating of 100 indicates 100% disease control and a rating of 0 indicates no disease control (relative to the controls). A dash (−) indicates no test results. All results are for 250 ppm except where followed by an “*” which indicates 50 ppm, and where followed by an “**” which indicates 10 ppm

[4] = system: Botrytis cinerea; experiment: Test C: tomato Botrytis, preventive spray on tomato seedlings, visual disease rating; assay type: in vivo; settings: 100 = 100% disease control, 0 = no control; for pest or weed control at 50 ppm / pest or weed control at 250 ppm: Botrytis cinerea
From the text: General protocol for preparing test suspensions for Tests A-D: the test compounds were first dissolved in acetone in an amount equal to 3% of the final volume and then suspended at the desired concentration (in ppm) in acetone and purified water (50/50 mix by volume) containing 250 ppm of the surfactant Trem® 014 (polyhydric alcohol esters). The resulting test suspensions were then used in Tests A-D. The test suspension was sprayed to the point of run-off on tomato seedlings. The following day the seedlings were inoculated with a spore suspension of Botrytis cinerea (the causal agent of tomato Botrytis) and incubated in a saturated atmosphere at 20° C. for 48 h, and then moved to a growth chamber at 24° C. for 3 days, after which time visual disease ratings were made. In the Table, a rating of 100 indicates 100% disease control and a rating of 0 indicates no disease control (relative to the controls). A dash (−) indicates no test results. All results are for 250 ppm except where followed by an “*” which indicates 50 ppm, and where followed by an “**” which indicates 10 ppm

For `CC=C(C)c1c(C(O)c2ccc(F)cc2Cl)c(Br)nn1C` (stereo not shown) [Compound 27], the “Test D disease control rating” value ([1]; 250 ppm) was 86%, the “Test B disease control rating” value ([2]; 50 ppm (*)) was 100* % and the “Test A disease control rating” value ([3]; 50 ppm (*)) was 99* %. For the same compound, the “Test C disease control rating” value ([4]; 50 ppm (*)) was 58* %.

In the case of `Cc1nn(C)c(C(C)C)c1C(O)c1ccc(F)cc1Cl` (stereo not drawn) [Compound 1, α-(2-chloro-4-fluorophenyl)-1,3-dimethyl-5-(1-methylethyl)-1H-pyrazole-4-methanol], the pest or weed control at 50 ppm ([1]; 50 ppm (*)) is reported as 97%, the pest or weed control at 50 ppm ([2]; 50 ppm (*)) is reported as 100% and the pest or weed control at 50 ppm ([3]; 50 ppm (*)) is reported as 98%. For the same compound, the pest or weed control at 50 ppm ([4]; 50 ppm (*)) was 33% and the melting point was 152 to 154 °C.

With `CCC(C)c1c(Nc2ccc(F)c(F)c2)c(C)nn1C` (stereo not shown) [Compound 20] the “Test D disease control rating” value ([1]; 50 ppm (*)) was 26* %, the “Test B disease control rating” value ([2]; 50 ppm (*)) was 0* % and the “Test A disease control rating” value ([3]; 50 ppm (*)) was 0* %.

With `Cc1nn(C)c(C2CCCCC2)c1C(O)c1ccc(F)cc1F` (stereo not drawn) [Compound 11, 5-cyclohexyl-α-(2,4-difluorophenyl)-1,3-dimethyl-1H-pyrazole-4-methanol] the pest or weed control at 250 ppm ([1]; 250 ppm) was 97%, the pest or weed control at 250 ppm ([2]; 250 ppm) was 100% and the pest or weed control at 250 ppm ([3]; 250 ppm) was 99%. It also gave a pest or weed control at 250 ppm ([4]; 250 ppm) of 99% and a melting point of 161 to 164 °C.

In the case of `CCC(C)c1c(Nc2c(F)cc(F)cc2F)c(C)nn1C` (stereo not shown) [Compound 15], the “Test D disease control rating” value ([1]; 50 ppm (*)) is reported as 0* %, the “Test B disease control rating” value ([2]; 50 ppm (*)) is reported as 1* % and the “Test A disease control rating” value ([3]; 50 ppm (*)) is reported as 0* %.

With `Cc1nn(C)c(C2CCCCC2)c1Oc1ccc(F)cc1Cl` [Compound 12, 4-(2-chloro-4-fluorophenoxy)-5-cyclohexyl-1,3-dimethyl-1H-pyrazole] the pest or weed control at 250 ppm ([1]; 250 ppm) was 90%, the pest or weed control at 250 ppm ([2]; 250 ppm) was 19% and the pest or weed control at 250 ppm ([3]; 250 ppm) was 79%. It also gave a pest or weed control at 250 ppm ([4]; 250 ppm) of 9% and a melting point of 75 to 79 °C.

For `CCC(C)c1c(C(O)c2ccc(F)cc2Cl)c(C)nn1C` (stereo not drawn) [Compound 9, α-(2-chloro-4-fluorophenyl)-1,3-dimethyl-5-(1-methylpropyl)-1H-pyrazole-4-methanol], the pest or weed control at 50 ppm ([1]; 50 ppm (*)) was 99%, the pest or weed control at 50 ppm ([2]; 50 ppm (*)) was 99% and the pest or weed control at 50 ppm ([3]; 50 ppm (*)) was 100%. For the same compound, the pest or weed control at 50 ppm ([4]; 50 ppm (*)) was 99% and the melting point was 128 to 131 °C.

In the case of `C=C(C)Cc1c(C(O)c2ccc(F)cc2Cl)c(C)nn1C` (stereo not shown) [Compound 5], the “Test D disease control rating” value ([1]; 50 ppm (*)) is reported as 76* %, the “Test B disease control rating” value ([2]; 50 ppm (*)) is reported as 99* % and the “Test A disease control rating” value ([3]; 50 ppm (*)) is reported as 68* %. The “Test C disease control rating” value ([4]; 50 ppm (*)) was 0* %.

In the case of `CCC(C)c1c(C(O)c2c(F)cccc2F)c(C)nn1C` (stereo not shown) [Compound 25], the “Test D disease control rating” value ([1]; 50 ppm (*)) is reported as 86* %, the “Test B disease control rating” value ([2]; 50 ppm (*)) is reported as 63* % and the “Test A disease control rating” value ([3]; 50 ppm (*)) is reported as 74* %. For the same compound, the “Test C disease control rating” value ([4]; 50 ppm (*)) was 17* %.

With `CC=C(C)c1c(Oc2ccc(F)cc2Cl)c(C)nn1C` [Compound 4] the “Test D disease control rating” value ([1]; 250 ppm) was 56%, the “Test B disease control rating” value ([2]; 250 ppm) was 0% and the “Test A disease control rating” value ([3]; 250 ppm) was 0%. The “Test C disease control rating” value ([4]; 250 ppm) was 39%.

In the case of `Cn1nc(Br)c(C(O)c2ccc(F)cc2Cl)c1C1=CCCCC1` (stereo not shown) [Compound 28], the “Test D disease control rating” value ([1]; 50 ppm (*)) is reported as 64* %, the “Test B disease control rating” value ([2]; 50 ppm (*)) is reported as 87* % and the “Test A disease control rating” value ([3]; 50 ppm (*)) is reported as 80* %. The “Test C disease control rating” value ([4]; 50 ppm (*)) was 0* %.

`Cc1nn(C)c(C2=CCCCC2)c1Oc1ccc(F)cc1Cl` [Compound 13, 4-(2-chloro-4-fluorophenoxy)-5-(1-cyclohexen-1-yl)-1,3-dimethyl-1H-pyrazole] gave a pest or weed control at 250 ppm ([1]; 250 ppm) of 67%, a pest or weed control at 250 ppm ([2]; 250 ppm) of 0% and a pest or weed control at 250 ppm ([3]; 250 ppm) of 9%. For the same compound, the pest or weed control at 250 ppm ([4]; 250 ppm) was 0%.

In the case of `CCC(C)c1c(Nc2c(F)cc(C#N)cc2F)c(C)nn1C` (stereo not shown) [Compound 17], the “Test D disease control rating” value ([1]; 50 ppm (*)) is reported as 69* %, the “Test B disease control rating” value ([2]; 50 ppm (*)) is reported as 35* % and the “Test A disease control rating” value ([3]; 50 ppm (*)) is reported as 0* %.

`CCC(C)c1c(C(O)c2c(Cl)cccc2Cl)c(C)nn1C` (stereo not drawn) [Compound 24, α-(2,6-dichlorophenyl)-1,3-dimethyl-5-(1-methylpropyl)-1H-pyrazole-4-methanol] showed a pest or weed control at 50 ppm ([1]; 50 ppm (*)) of 84%, a pest or weed control at 50 ppm ([2]; 50 ppm (*)) of 69% and a pest or weed control at 50 ppm ([3]; 50 ppm (*)) of 99%. It also gave a pest or weed control at 50 ppm ([4]; 50 ppm (*)) of 40% and a melting point of 175 to 178 °C.

For `Cc1nn(C)c(C(C)C)c1C(O)c1ccc(F)cc1F` (stereo not shown) [Compound 2], the “Test D disease control rating” value ([1]; 50 ppm (*)) was 99* %, the “Test B disease control rating” value ([2]; 50 ppm (*)) was 99* % and the “Test A disease control rating” value ([3]; 50 ppm (*)) was 57* %. For the same compound, the “Test C disease control rating” value ([4]; 50 ppm (*)) was 0* %.

In the case of `CCC(C)c1c(Nc2ccc(F)cc2Cl)c(C)nn1C` (stereo not shown) [Compound 18], the “Test D disease control rating” value ([1]; 50 ppm (*)) is reported as 0* %, the “Test B disease control rating” value ([2]; 50 ppm (*)) is reported as 0* % and the “Test A disease control rating” value ([3]; 50 ppm (*)) is reported as 0* %.

In the case of `Cc1nn(C)c(C2CCCCC2)c1C(O)c1ccc(F)cc1Cl` (stereo not drawn) [Compound 8, α-(2-chloro-4-fluorophenyl)-5-cyclohexyl-1,3-dimethyl-1H-pyrazole-4-methanol], the pest or weed control at 250 ppm ([1]; 250 ppm) is reported as 93%, the pest or weed control at 250 ppm ([2]; 250 ppm) is reported as 99% and the pest or weed control at 250 ppm ([3]; 250 ppm) is reported as 99%. The pest or weed control at 250 ppm ([4]; 250 ppm) was 86% and the melting point was 146 to 149 °C.

With `Cc1nn(C)c(C2CCCC2)c1C(O)c1ccc(F)cc1F` (stereo not shown) [Compound 26] the “Test D disease control rating” value ([1]; 50 ppm (*)) was 90* %, the “Test B disease control rating” value ([2]; 50 ppm (*)) was 97* % and the “Test A disease control rating” value ([3]; 50 ppm (*)) was 74* %. For the same compound, the “Test C disease control rating” value ([4]; 50 ppm (*)) was 26* %.

With `CCC(C)c1c(Nc2c(F)cc([N+](=O)[O-])cc2F)c(C)nn1C` (stereo not shown) [Compound 16] the “Test D disease control rating” value ([1]; 50 ppm (*)) was 0* %, the “Test B disease control rating” value ([2]; 50 ppm (*)) was 22* % and the “Test A disease control rating” value ([3]; 50 ppm (*)) was 0* %.

For `CCC(C)c1c(Oc2ccc(F)cc2Cl)c(C)nn1C` (stereo not shown) [Compound 7], the “Test D disease control rating” value ([1]; 250 ppm) was 0%, the “Test B disease control rating” value ([2]; 250 ppm) was 0% and the “Test A disease control rating” value ([3]; 250 ppm) was 0%. The “Test C disease control rating” value ([4]; 250 ppm) was 0%.

For `Cc1nn(C)c(C2CCCC2)c1C(O)c1ccc(F)cc1Cl` (stereo not shown) [Compound 19], the “Test D disease control rating” value ([1]; 50 ppm (*)) was 89* %, the “Test B disease control rating” value ([2]; 50 ppm (*)) was 100* % and the “Test A disease control rating” value ([3]; 50 ppm (*)) was 89* %. For the same compound, the “Test C disease control rating” value ([4]; 50 ppm (*)) was 0* %.
